Data reported in patent publication US7833722B2, “Ligands for G protein-coupled receptor protein and use thereof” (Takeda Pharmaceutical Company Limited, priority 2004, dated 2010).

How the values were obtained:
[1] = target: T1, GPR17 (Homo sapiens, UniProt Q13304); experiment: Suppression of forskolin-increased intracellular cAMP level in GPR17-expressed CHO cells; assay type: cell-based; design: expressed in transfected cells; settings: forskolin 2 μM, 30 minutes, ALA in various concentrations, FIG. 2
Procedure: The GPR17-expressed CHO cells was incubated overnight and then washed with an assay medium (HBBBS supplemented with 0.1% bovine serum albumin and 0.2 mM IBMX, followed by incubation at 37° C. for 30 minutes under 5% CO2 conditions. ALA diluted with the assay medium in various concentrations and forskolin were added thereto in 2 μM, followed by incubation at 37° C. for 30 minutes under 5% CO2 conditions. The culture supernatant was discarded and the intracellular cAMP level was determined on a plate reader (EnVision, PerkinElmer), following the protocol of cAMP Screen Kit (Applied Biosystems).

[2] = target: T1, GPR17; experiment: SRE-luciferase reporter assay in GPR17-expressed HeLa cells
[3] = system: SP-induced biting response (pain response); experiment: Substance P-induced biting response after intrathecal administration to mice; assay type: in vivo; settings: 0.66, 2.0 and 6.6 μg/mouse intrathecal with SP 10 μg, male ICR mice, counted for one minute, FIG. 3
Procedure: In order to examine effects of 5-aminolevulic acid (ALA) on pain, ALA was mixed with substance P (SP) and the mixture was intrathecally administered. Male ICR mice of 5 weeks age for intrathecal administration received incision on the dorsal tail and habituated at least for an hour. Thereafter, SP (10 μg) alone or a mixture of SP (10 μg) and ALA was intrathecally administered to the mice (5 μL/mouse) between the L5 and L6 level of the spinal cord, under no anesthesia. Immediately after administration, the number of times that the mice bit the underbody mutually was counted for one minute and the number was made an indicator of false pain response by SP.

[4] = target: T2, GPR40 (Homo sapiens, UniProt O14842); experiment: SRE-luciferase reporter assay in GPR40 expression cells used for control; assay type: cell-based; settings: PBG 1000 μM
T2 construct: expressed in transfected cells; host or cells: GPR40 expression cells
T2 sequence (O14842 whole entry, species assumed): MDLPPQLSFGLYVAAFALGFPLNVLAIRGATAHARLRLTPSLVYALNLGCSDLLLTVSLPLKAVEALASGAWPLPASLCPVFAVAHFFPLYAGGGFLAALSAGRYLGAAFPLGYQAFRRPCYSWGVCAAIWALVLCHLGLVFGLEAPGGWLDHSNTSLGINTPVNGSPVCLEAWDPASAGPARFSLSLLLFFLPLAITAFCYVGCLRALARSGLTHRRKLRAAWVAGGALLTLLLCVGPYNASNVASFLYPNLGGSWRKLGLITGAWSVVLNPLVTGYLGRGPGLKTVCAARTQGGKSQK

T1 sequence (Q13304 29-367): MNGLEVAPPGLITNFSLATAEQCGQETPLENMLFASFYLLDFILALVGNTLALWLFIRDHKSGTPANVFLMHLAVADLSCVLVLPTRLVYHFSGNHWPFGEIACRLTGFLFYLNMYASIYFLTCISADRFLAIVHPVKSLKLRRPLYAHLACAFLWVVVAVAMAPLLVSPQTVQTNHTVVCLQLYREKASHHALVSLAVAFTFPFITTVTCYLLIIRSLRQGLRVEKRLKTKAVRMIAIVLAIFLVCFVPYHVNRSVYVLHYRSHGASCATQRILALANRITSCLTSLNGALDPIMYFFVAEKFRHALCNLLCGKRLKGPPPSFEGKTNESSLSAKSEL

Row | SMILES | intracellular cAMP level increased by forskolin addition [1] | luciferase activity in the GPR17-expressed cells (in words) ([2]; ALA 200 μM) | Increased Luciferase Activity (cps) by ALA in GPR17-Expressed Cells ([2]; ALA 200 μM, HeLa cells, 4 hours incubation) | effect on SP-induced biting response (pain response) [3] | Increased luciferase activity (cps) in the GPR17 expression cells by PBG ([2]; PBG 1000 μM) | luciferase activity in the GPR17 expression cells (in words) ([2]; PBG 1000 μM) | luciferase activity (cps), GPR40 (control) [4]
1 | NCC(=O)CCC(=O)O [ALA, 5-aminolevulinic acid] | dose-dependent and specific decrease | increased luciferase activity | 6707 cps | significant suppression effect | – | – | –
2 | NCc1[nH]cc(CCC(=O)O)c1CC(=O)O [PBG, porphobilinogen] | – | – | – | – | 37999 cps | increased luciferase activity | 3769 cps
